# Assay results from patent publication US12331042B2, “Compounds suitable for the treatment and prophylaxis of muscle wasting and other conditions” (priority 2019, dated 2025).
# “Also recorded” adds a separate entry of the source.
# What was measured:
# [1] = test system: monocrotaline (MCT)-treated C57BL/6 mice; assay: Pulmonary hypertension mouse model, test series 1; format: in vivo; settings: MCT+compound chow vs MCT
# Protocol: The animal experiments were approved by the Regierungspräsidium Karlsruhe (35-9185.81/G-141/13) and the Regierungspräsidium Leipzig (TVV 40/16). Three groups of mice were included in this study, including: 1) saline-treated (sham; n=20); 2) monocrotaline (MCT)-treated fed normal chow (MCT; n=27); and 3) MCT-treated fed MuRF1 inhibitor chow (MCT+compound; n=27). Briefly, C57BL/6 mice (aged 8 weeks) were subcutaneously injected weekly with either MCT (600 mg/kg) or a matched volume of saline for 6 weeks, a time period where MCT is known to induce cardiac cachexia due to pulmonary hypertension and subsequent RV dysfunction rather than anorexia, as described by Ahn et al., PLoS One, 2013, 8:e62702. Mice were exposed to identical conditions under a 12:12 h light/dark cycle with food and water provided ad libitum. The MCT+compound group started receiving the inhibitor chow 1 week prior to the MCT injections, whereas the sham and MCT groups were fed an identical chow but without the addition of the selected compound. Body weight was recorded every week for each mouse. […]
# For histological evaluation, paraffin-embedded TA muscle sections (3 μm) were stained with H&E and fiber cross-sectional area (CSA) and then evaluated by imaging software (Analysis 3.0, Olympus Soft Imaging Solutions GmbH, Munster, Germany). […]
# [2] = test system: C57/BL6 mice with LAD ligation (CHF); assay: Myocardial infarction LAD mouse model (CHF, HFrEF); format: in vivo; settings: 0.1% compound in chow
# Protocol: A myocardial infarction mouse model suffering from a heart failure with reduced ejection fraction (HFrEF) was generated by ligating the left anterior […] coronary artery (LAD) as described below to induce an acute myocardial infarction (MI) followed by the development of a chronic (systolic) heart failure (CHF).
# A small animal surgery was carried out on C57/BL6 mice at 12 weeks of age in the Leipzig Heart Center following established and well known procedures in the field (see for example Bowen et al., J Appl Physiol, 2015, 118, 11-19; Mangner et al., J Cachexia Sarcopenia Muscle, 2015, 6, 381-390). Briefly, mice from the LAD group were anesthetized by i.p. injection of MMF; Medetomidin (0.5 mg/kg body weight), Midazolam (5.0 mg/kg body weight), Fentanyl (0.05 mg/kg body weight). Unconscious mice were fixed on an operation table. Ventral parts of the thorax were shaved, washed and sterilized. Unconscious mice were then intubated and ventilated with normal room air, using an animal respirator (TSE GmbH, Siemensstr. 21, 61352 Bad Homburg; product: http://tinateb.com/wp-content/uploads/2016/06/TSE_Respirator-Compact_20080724_HR.pdf). For LAD operation, the thorax was opened about 1 cm above the Processus xiphoideus and about 1 cm left parasternally by dissecting the skin here. The below located M. pectoralis was moved to the sides without further injury to access the thorax wall. The intercostal muscles between two ribs were moved to the side without breaking the ribs. The thereby created intrathoracic access was widened by a surgical spreader inserted above the pericardium. The pericardium was opened surgically stump by using two anatomical forceps. The thymus, if present in the surgical field, was pushed to the side with a surgical swab to gain access to the aortic root. The heart was carefully moved out of the pericardium using a hook, and the left atrium was put to the side with a surgical swab. The LAD was then ligated with a 5.0 Prolene suture (Ethicon, see http://www.ethicon.com/healthcare-professionals/products/wound-closure/non-absorbable-sutures/prolene-polypropylene). The ligation was made close to the aortic root, and the suture was tightened until paleness of the coronary artery anterior wall was noted. After ligation, the thorax wall and then the skin were closed by a single button seam using a 4.0 Prolene suture (company: Ethicon).
# As a control, sham operations were performed. For the sham control group, the procedure followed was exactly the same as described above, except that the 5.0 prolene suture was only loosely out around the LAD without tightening.
# The operation is ended by extubation, and antagonizing the anesthesia by i.p. injection of Atipamezol (2.5 mg/kg body weight) and Flumazenil (0.5 mg/kg body weight). Mice were put onto a warming mate until waking up, and then were transferred back to animal cages. The time for the whole procedure above by expert staff was around 30 min.
# One week after LAD ligation, echocardiography was performed in M-mode to confirm MI, i.e. the left ventricular end-diastolic (LVEDD) and systolic (LVESD) diameters were assessed to allow calculation of left ventricular (LV) fractional shortening (LVFS=[LVEDD_LVESDLVEDD]×100). Only mice with a large infarct (left ventricular ejection fraction (LVEF)<20%) were subsequently randomized into two groups, i.e. one group receiving normal chow (CHF, n=11) and a second group receiving chow supplemented with compound (0.1% of compound MyoMed-946, CHF+MyoMed-946, n=12). Sham operated animals received only normal chow (n=15). Nine weeks later, echocardiography was performed again.
# The animals were sacrificed to collect tissues, in particular diaphragm tissue, for functional and molecular characterization. All experiments and procedures were approved by the local Animal Research Council, University of Leipzig, and the Landesbehörde Sachsen (TVV 36/15).
# [3] = after 10 weeks of intervention, n = 12
# [4] = after 10 weeks, echocardiography
structure (smiles),measurement,setting,value
"Cc1cc(=O)oc2cc(OCc3ccc(C(=O)OCC(=O)NC(=O)NCc4ccco4)cc3)ccc12 [MyoMed-946, [2-(2-furylmethylcarbamoylamino)-2-oxo-ethyl] 4-[(4-methyl-2-oxo-chromen-7-yl)oxymethyl]benzoate]",right ventricle hypertrophy,[1]; 6 weeks MCT,attenuated; also recorded: attenuates the development of right ventricle hypertrophy
same,"loss of skeletal muscle mass (EDL, soleus, TA wet weight, TA fiber CSA)",[1]; most obvious effect in TA muscle,protected
same,LV infarct size,"[2]; after 10 weeks of intervention, histology",27.1 ± 2.9%
same,Heart-to-body weight,[2]; [3],7.52 ± 0.57 mg/g
same,Lung weight (wet/dry),[2]; [3],4.47 ± 0.10
same,LVEDD,[2]; [4],5.9 ± 0.2 mm
same,LVEF,[2]; [4],21.1 ± 2.5 %
same,LVESD,[2]; [4],5.3 ± 0.2 mm
same,LVFS,[2]; [4],9.9 ± 1.2 %
